# Patent US9877956B2, “Antiviral compounds and methods of use thereof” (Trana Discovery, Inc., priority 2014, dated 2018)
# Several values for one entry are separate records, joined by “and”; a condition that tells them apart may be missing. Equal values may be shown once.
# Experiments:
# Format in all cases: cell-based
# [1] = Toxicity in PBMC (Cell Titer 96); details: human, peripheral blood mononuclear cells (PBMC); PBMC, Cell Titer 96
# Description: (§1) These compounds were further screened for activity in HIV-1-infected peripheral blood mononuclear cells (PBMC). The data (experiments were repeated, so duplicates are shown) is summarized in the tables below, and also in FIGS. 4A-B and 5A-B.
# [2] = tested on: PBMC; experiment: Toxicity in PBMC (Cell Titer 96); details: for % CC: O.D. relative to cell control; for TOXICITY VALUES (Cell Titer 96 - O.D. @ 490/650 nm), SAMPLE: individual samples
# Description: as §1
# [3] = tested on: HUMAN PBMCS; experiment: Cytotoxicity in human PBMCs (XTT); details: for TOXICITY VALUES (XTT - O.D. @ 450/650 nm), SAMPLE: individual samples, listed as Trana 154
# Method: (§2) In these studies, PHA-P stimulated PBMCs from three donors were pooled together and re-suspended in fresh tissue culture medium at 1×10^6 cells/mL and plated in the interior wells of a 96 well round bottom microplate at 50µl/well. A 100µL volume of 9 concentrations of compound serially diluted were transferred to the round-bottom 96 well plate containing the cells in triplicate. Fifty microliters (µL) of HIV-1 at a pre-determined dilution was added. Each plate contained cell control wells and virus control wells in parallel with the experimental wells. After 7 days in culture, efficacy was evaluated by measuring the reverse transcriptase in the culture supernatants and the cells were stained with the tetrazolium dye XTT to evaluate cytotoxicity.
# [4] = tested on: HIV-1/Ba-L; experiment: Inhibition of HIV-1 Ba-L replication in PBMC (RT values); details: for % VC: RT relative to virus control; for RT Values (cpm), SAMPLE: individual samples
# Method: as §1
# The HIV strain was HIV-1/Ba-L. The titer was 0.1 μL/well.
# [5] = tested on: HIV-1 92/HT/599; experiment: HIV-1 92/HT/599 replication in human PBMCs, reverse transcriptase in culture supernatants (RLU); details: for RLU (Relative Light Units), SAMPLE: individual samples, listed as Trana 154
# Method: as §2
smiles,measurement,setting,value
c1ccc(N/N=C2/CCc3ccccc3N2)cc1 [HIT #154],CC50,[1],> 100 µM
same,"TOXICITY VALUES (Cell Titer 96 - O.D. @ 490/650 nm), MEAN",[2]; 0.01 μM,0.990 O.D.
same,% CC,[2]; 0.01 μM,119.6%
same,"TOXICITY VALUES (Cell Titer 96 - O.D. @ 490/650 nm), SAMPLE",[2]; 0.01 μM,1.163 O.D. and 1.007 O.D. and 0.800 O.D.
same,"TOXICITY VALUES (Cell Titer 96 - O.D. @ 490/650 nm), MEAN",[2]; 0.03 μM,0.810 O.D.
same,% CC,[2]; 0.03 μM,97.9%
same,"TOXICITY VALUES (Cell Titer 96 - O.D. @ 490/650 nm), SAMPLE",[2]; 0.03 μM,0.746 O.D. and 0.831 O.D. and 0.853 O.D.
same,"TOXICITY VALUES (Cell Titer 96 - O.D. @ 490/650 nm), MEAN",[2]; 0.10 μM,0.966 O.D.
same,% CC,[2]; 0.10 μM,116.8%
same,"TOXICITY VALUES (Cell Titer 96 - O.D. @ 490/650 nm), SAMPLE",[2]; 0.10 μM,1.086 O.D. and 0.970 O.D. and 0.843 O.D.
same,"TOXICITY VALUES (Cell Titer 96 - O.D. @ 490/650 nm), MEAN",[2]; 0.32 μM,0.937 O.D.
same,% CC,[2]; 0.32 μM,113.3%
same,"TOXICITY VALUES (Cell Titer 96 - O.D. @ 490/650 nm), SAMPLE",[2]; 0.32 μM,0.736 O.D. and 1.231 O.D. and 0.845 O.D.
same,"TOXICITY VALUES (Cell Titer 96 - O.D. @ 490/650 nm), MEAN",[2]; 1.00 μM,1.077 O.D.
same,% CC,[2]; 1.00 μM,130.2%
same,"TOXICITY VALUES (Cell Titer 96 - O.D. @ 490/650 nm), SAMPLE",[2]; 1.00 μM,1.296 O.D. and 1.045 O.D. and 0.892 O.D.
same,"TOXICITY VALUES (Cell Titer 96 - O.D. @ 490/650 nm), MEAN",[2]; 3.16 μM,0.964 O.D.
same,% CC,[2]; 3.16 μM,116.5%
same,"TOXICITY VALUES (Cell Titer 96 - O.D. @ 490/650 nm), SAMPLE",[2]; 3.16 μM,1.146 O.D. and 0.903 O.D. and 0.843 O.D.
same,"TOXICITY VALUES (Cell Titer 96 - O.D. @ 490/650 nm), MEAN",[2]; 10.0 μM,0.937 O.D.
same,% CC,[2]; 10.0 μM,113.2%
same,"TOXICITY VALUES (Cell Titer 96 - O.D. @ 490/650 nm), SAMPLE",[2]; 10.0 μM,0.712 O.D. and 1.254 O.D. and 0.846 O.D.
same,"TOXICITY VALUES (Cell Titer 96 - O.D. @ 490/650 nm), MEAN",[2]; 31.6 μM,0.962 O.D.
same,% CC,[2]; 31.6 μM,116.3%
same,"TOXICITY VALUES (Cell Titer 96 - O.D. @ 490/650 nm), SAMPLE",[2]; 31.6 μM,0.898 O.D. and 1.018 O.D. and 0.970 O.D.
same,"TOXICITY VALUES (Cell Titer 96 - O.D. @ 490/650 nm), MEAN",[2]; 100 μM,0.769 O.D.
same,% CC,[2]; 100 μM,92.9%
same,"TOXICITY VALUES (Cell Titer 96 - O.D. @ 490/650 nm), SAMPLE",[2]; 100 μM,0.757 O.D. and 0.854 O.D. and 0.697 O.D.
same,TC 90%,"[2]; PBMC, Cell Titer 96",>100 µM
same,TC 95%,"[2]; PBMC, Cell Titer 96",>100 µM
same,% Cell Viability,[3]; 0.32 μg/ml,92.64%
same,Cytotoxicity Test Values Mean OD @ 450/650 nm,[3]; 0.32 μg/ml,1.038 OD
same,"TOXICITY VALUES (XTT - O.D. @ 450/650 nm), SAMPLE",[3]; 0.32 μg/ml,0.9729 O.D. and 1.0510 O.D. and 1.0896 O.D.
same,% Cell Viability,[3]; 1 μg/ml,87.74%
same,Cytotoxicity Test Values Mean OD @ 450/650 nm,[3]; 1 μg/ml,0.983 OD
same,"TOXICITY VALUES (XTT - O.D. @ 450/650 nm), SAMPLE",[3]; 1 μg/ml,0.9683 O.D. and 1.0187 O.D. and 0.9670 O.D.
same,% Cell Viability,[3]; 3.16 μg/ml,88.82%
same,Cytotoxicity Test Values Mean OD @ 450/650 nm,[3]; 3.16 μg/ml,0.995 OD
same,"TOXICITY VALUES (XTT - O.D. @ 450/650 nm), SAMPLE",[3]; 3.16 μg/ml,0.9103 O.D. and 1.0889 O.D. and 0.9881 O.D.
same,% Cell Viability,[3]; 9.99 μg/ml,99.35%
same,Cytotoxicity Test Values Mean OD @ 450/650 nm,[3]; 9.99 μg/ml,1.113 OD
same,"TOXICITY VALUES (XTT - O.D. @ 450/650 nm), SAMPLE",[3]; 9.99 μg/ml,1.1959 O.D. and 0.9242 O.D. and 1.2189 O.D.
same,% Cell Viability,[3]; 31.6 μg/ml,64.38%
same,Cytotoxicity Test Values Mean OD @ 450/650 nm,[3]; 31.6 μg/ml,0.721 OD
same,"TOXICITY VALUES (XTT - O.D. @ 450/650 nm), SAMPLE",[3]; 31.6 μg/ml,0.6103 O.D. and 0.6005 O.D. and 0.7620 O.D.
same,% Cell Viability,[3]; 100 μg/ml,46.94%
same,Cytotoxicity Test Values Mean OD @ 450/650 nm,[3]; 100 μg/ml,0.526 OD
same,"TOXICITY VALUES (XTT - O.D. @ 450/650 nm), SAMPLE",[3]; 100 μg/ml,0.4574 O.D. and 0.5742 O.D. and 0.5461 O.D.
same,TC 25%,"[3]; human PBMCs, XTT",22.3 mg/L
same,TC50 (TC 50%),"[3]; human PBMCs, XTT",81.7 mg/L
same,TC 95%,"[3]; human PBMCs, XTT",>100 mg/L
same,"RT Values (cpm), MEAN",[4]; 0.01 μM,29112.2 cpm
same,% VC,[4]; 0.01 μM,98.8%
same,"RT Values (cpm), SAMPLE",[4]; 0.01 μM,31907 cpm and 25645 cpm and 29785 cpm
same,"RT Values (cpm), MEAN",[4]; 0.03 μM,29394.5 cpm
same,% VC,[4]; 0.03 μM,99.8%
same,"RT Values (cpm), SAMPLE",[4]; 0.03 μM,28419 cpm and 27673 cpm and 32092 cpm
same,"RT Values (cpm), MEAN",[4]; 0.10 μM,28793.5 cpm
same,% VC,[4]; 0.10 μM,97.8%
same,"RT Values (cpm), SAMPLE",[4]; 0.10 μM,24503 cpm and 28356 cpm and 33522 cpm
same,"RT Values (cpm), MEAN",[4]; 0.32 μM,28067.5 cpm
same,% VC,[4]; 0.32 μM,95.3%
same,"RT Values (cpm), SAMPLE",[4]; 0.32 μM,30361 cpm and 24204 cpm and 29638 cpm
same,"RT Values (cpm), MEAN",[4]; 1.00 μM,19065.5 cpm
same,% VC,[4]; 1.00 μM,64.7%
same,"RT Values (cpm), SAMPLE",[4]; 1.00 μM,18120 cpm and 21373 cpm and 17704 cpm
same,"RT Values (cpm), MEAN",[4]; 3.16 μM,15141.8 cpm
same,% VC,[4]; 3.16 μM,51.4%
same,"RT Values (cpm), SAMPLE",[4]; 3.16 μM,12447 cpm and 16921 cpm and 16058 cpm
same,"RT Values (cpm), MEAN",[4]; 10.0 μM,12407.5 cpm
same,% VC,[4]; 10.0 μM,42.1%
same,"RT Values (cpm), SAMPLE",[4]; 10.0 μM,13978 cpm and 10363 cpm and 12882 cpm
same,"RT Values (cpm), MEAN",[4]; 31.6 μM,9086.8 cpm
same,% VC,[4]; 31.6 μM,30.9%
same,"RT Values (cpm), SAMPLE",[4]; 31.6 μM,10815 cpm and 7472 cpm and 8974 cpm
same,"RT Values (cpm), MEAN",[4]; 100 μM,2467.8 cpm
same,% VC,[4]; 100 μM,8.4%
same,"RT Values (cpm), SAMPLE",[4]; 100 μM,3062 cpm and 2720 cpm and 1622 cpm
same,IC 95%,[4]; HIV-1 Ba-L in PBMC,65.1 µM and >100 µM
same,ANTIVIRAL INDEX (AI) 95%,[4]; TC/IC at 95%,>1.54
same,% Virus Control,[5]; 0.32 μg/ml,84.00%
same,Antiviral Test Values Mean RLU,[5]; 0.32 μg/ml,16201.3 RLU
same,"RLU (Relative Light Units), SAMPLE",[5]; 0.32 μg/ml,27495.0 RLU and 14218.0 RLU and 6891.0 RLU
same,% Virus Control,[5]; 1 μg/ml,78.40%
same,Antiviral Test Values Mean RLU,[5]; 1 μg/ml,15121.3 RLU
same,"RLU (Relative Light Units), SAMPLE",[5]; 1 μg/ml,10410.0 RLU and 21914.0 RLU and 13031.0 RLU
same,% Virus Control,[5]; 3.16 μg/ml,41.46%
same,Antiviral Test Values Mean RLU,[5]; 3.16 μg/ml,7996.7 RLU
same,"RLU (Relative Light Units), SAMPLE",[5]; 3.16 μg/ml,11407.0 RLU and 10934.0 RLU and 1649.0 RLU
same,% Virus Control,[5]; 9.99 μg/ml,48.92%
same,Antiviral Test Values Mean RLU,[5]; 9.99 μg/ml,9436.3 RLU
same,"RLU (Relative Light Units), SAMPLE",[5]; 9.99 μg/ml,13230.0 RLU and 13148.0 RLU and 1933.0 RLU
same,% Virus Control,[5]; 31.6 μg/ml,35.47%
same,Antiviral Test Values Mean RLU,[5]; 31.6 μg/ml,6841.0 RLU
same,"RLU (Relative Light Units), SAMPLE",[5]; 31.6 μg/ml,5800.0 RLU and 7652.0 RLU and 7462.0 RLU
same,% Virus Control,[5]; 100 μg/ml,6.75%
same,Antiviral Test Values Mean RLU,[5]; 100 μg/ml,1301.3 RLU
same,"RLU (Relative Light Units), SAMPLE",[5]; 100 μg/ml,1021.0 RLU and 744.0 RLU and 2139.0 RLU
same,EC 25%,"[5]; HIV-1 92/HT/599, human PBMCs",1.11 mg/L
same,EC 95%,"[5]; HIV-1 92/HT/599, human PBMCs",>100 mg/L
same,EC50,"[5]; Human immunodeficiency virus 1, PBMC, read-out: EC50 (EC 50%), HIV-1 92/HT/599, human PBMCs",2.42 mg/L
same,Therapeutic Index (TI) 25%,[5]; TC/EC at 25%,20.09
same,Therapeutic Index (TI) 50%,[5]; TC/EC at 50%,33.76
same,Therapeutic Index (TI) 95%,[5]; TC/EC at 95%,1
